Laboratory results: ChEMBL document CHEMBL1667816, “Preparation and in vitro screening of symmetrical bis-isoquinolinium cholinesterase inhibitors bearing various connecting linkage--implications for early Myasthenia gravis treatment” (Eur J Med Chem, 2011)

How the values were obtained:
[1] = target: T1, Acetylcholinesterase (Homo sapiens, UniProt P22303); assay: Inhibition of human recombinant AChE by Lineweaver-Burk plot analysis
[2] = target: Cholinesterase (Homo sapiens, UniProt P06276); assay: Inhibition of human plasmatic BChE by Lineweaver-Burk plot analysis; assay type: cell-free, Plasma
Cholinesterase, sequence (P06276 whole entry): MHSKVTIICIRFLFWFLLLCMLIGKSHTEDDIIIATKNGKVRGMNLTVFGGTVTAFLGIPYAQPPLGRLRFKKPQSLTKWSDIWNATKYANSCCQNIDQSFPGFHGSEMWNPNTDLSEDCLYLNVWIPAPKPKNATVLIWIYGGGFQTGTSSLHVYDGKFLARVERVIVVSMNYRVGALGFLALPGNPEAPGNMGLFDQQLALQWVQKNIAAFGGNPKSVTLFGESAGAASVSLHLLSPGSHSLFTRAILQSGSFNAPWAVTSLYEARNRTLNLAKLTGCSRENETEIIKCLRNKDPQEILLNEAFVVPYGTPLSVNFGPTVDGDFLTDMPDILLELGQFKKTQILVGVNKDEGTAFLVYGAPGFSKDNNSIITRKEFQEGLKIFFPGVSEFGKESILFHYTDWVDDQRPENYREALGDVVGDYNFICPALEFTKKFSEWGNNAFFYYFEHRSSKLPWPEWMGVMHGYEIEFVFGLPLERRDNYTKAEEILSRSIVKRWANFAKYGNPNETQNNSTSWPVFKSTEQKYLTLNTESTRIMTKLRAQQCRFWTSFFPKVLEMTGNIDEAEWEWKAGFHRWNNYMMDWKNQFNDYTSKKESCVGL

[3] = target: T1, Acetylcholinesterase
Description: Dissociation constant for enzyme-inhibitor complex of human recombinant AChE by Lineweaver-Burk plot analysis

[4] = target: T1, Acetylcholinesterase; remark: listed apart in the source
Description: Dissociation constant for enzyme-inhibitor-substrate complex of human recombinant AChE by Lineweaver-Burk plot analysis

T1 sequence (P22303 whole entry): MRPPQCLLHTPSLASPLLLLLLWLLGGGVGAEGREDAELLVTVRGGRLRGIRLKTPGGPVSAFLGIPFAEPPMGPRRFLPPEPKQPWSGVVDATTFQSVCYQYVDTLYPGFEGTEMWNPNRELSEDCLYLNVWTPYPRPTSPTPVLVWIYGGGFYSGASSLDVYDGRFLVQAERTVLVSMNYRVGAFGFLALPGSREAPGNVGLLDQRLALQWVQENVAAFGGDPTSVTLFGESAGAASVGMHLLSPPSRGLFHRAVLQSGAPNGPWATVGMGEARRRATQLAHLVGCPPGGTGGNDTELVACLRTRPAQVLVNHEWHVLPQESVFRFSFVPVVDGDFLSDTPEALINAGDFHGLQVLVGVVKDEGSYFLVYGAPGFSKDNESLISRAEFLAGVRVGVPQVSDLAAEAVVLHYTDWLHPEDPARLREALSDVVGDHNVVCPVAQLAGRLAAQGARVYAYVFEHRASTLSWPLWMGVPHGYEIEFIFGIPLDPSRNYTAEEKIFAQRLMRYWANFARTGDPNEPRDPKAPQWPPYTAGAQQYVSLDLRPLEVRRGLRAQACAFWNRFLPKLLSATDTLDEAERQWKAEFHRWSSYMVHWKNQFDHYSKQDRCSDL

Compound | IC50 [1] | IC50 [2] | Ki [3] | Ki [4]
c1ccc2c[n+](CCCCCCCCC[n+]3ccc4ccccc4c3)ccc2c1 | 0.04 µM | 0.6 µM |  | 
c1ccc2c[n+](CCCCCCCCCCC[n+]3ccc4ccccc4c3)ccc2c1 | 0.1 µM | 9 µM |  | 
c1ccc2c[n+](CCCCCCCCCCCC[n+]3ccc4ccccc4c3)ccc2c1 | 137 µM | 0.1 µM |  | 
c1ccc2c[n+](CCCCCCCCCC[n+]3ccc4ccccc4c3)ccc2c1 | 0.05 µM | 1.6 µM |  | 
c1ccc2c[n+](C[n+]3ccc4ccccc4c3)ccc2c1 | 654 µM | 1400 µM |  | 
c1ccc2c[n+](CCC[n+]3ccc4ccccc4c3)ccc2c1 | 446 µM | 2600 µM |  | 
c1ccc2c[n+](CCCC[n+]3ccc4ccccc4c3)ccc2c1 | 36 µM | 40 µM |  | 
c1ccc2c[n+](CCCCC[n+]3ccc4ccccc4c3)ccc2c1 | 13 µM | 0.7 µM |  | 
c1ccc2c[n+](CCCCCC[n+]3ccc4ccccc4c3)ccc2c1 | 0.3 µM | 2 µM |  | 
c1ccc2c[n+](CCCCCCC[n+]3ccc4ccccc4c3)ccc2c1 | 0.5 µM | 3 µM |  | 
c1ccc2c[n+](COC[n+]3ccc4ccccc4c3)ccc2c1 | 2 µM | 154 µM |  | 
c1ccc2c[n+](CCOCC[n+]3ccc4ccccc4c3)ccc2c1 | 1310 µM | 51 µM |  | 
C(=C\C[n+]1ccc2ccccc2c1)/C[n+]1ccc2ccccc2c1 | 7 µM | 64 µM |  | 
C(=C/C[n+]1ccc2ccccc2c1)/C[n+]1ccc2ccccc2c1 | 17 µM | 25 µM |  | 
c1ccc(C[n+]2ccc3ccccc3c2)c(C[n+]2ccc3ccccc3c2)c1 | 250 µM | 0.6 µM |  | 
c1cc(C[n+]2ccc3ccccc3c2)cc(C[n+]2ccc3ccccc3c2)c1 | 8 µM | 1 µM |  | 
c1ccc2c[n+](Cc3ccc(C[n+]4ccc5ccccc5c4)cc3)ccc2c1 | 12 µM | 840 µM |  | 
c1ccc2c[n+](Cc3ccc4ccc(C[n+]5ccc6ccccc6c5)cc4c3)ccc2c1 | 0.3 µM | 4 µM | 1.25 µM | 0.75 µM
C[N+](C)(CCNC(=O)C(=O)NCC[N+](C)(C)Cc1ccccc1Cl)Cc1ccccc1Cl [AMBENONIUM DICHLORIDE] |  | 6.82 µM |  | 
CC[N+](C)(C)c1cccc(O)c1 [EDROPHONIUM CHLORIDE] |  | 1370 µM |  | 
